Results published in patent US7951844B2, “Tranquilizer and functional food” (J-Oil Mills, Inc., priority 2007, dated 2011).
Where a name gives a salt, the structure may show the parent alone.

What was measured:
fear-conditioned mice [1] = settings: 7-day oral administration of 30 mg/kg; cited from earlier work
fear-conditioned mice [2] = experiment: fear condition-induced akinesia time (conditioned-fear measurement system); assay type: in vivo, mouse; settings: for akinesia time (for every 60 seconds) compared to the control group, two-way analysis of variance: 30 mg/kg oral for 7 days, P<0.01 (menaquinone-4), P<0.05 (menaquinone-7); for akinesia time (% of freezing), period from 0 to 60 seconds / akinesia time (% of freezing), period from 180 to 240 seconds: male C57BL/6 mice, 30 mg/kg oral forced feeding for 7 days, measured 2 h after final administration, mean of 10 mice
Description: A stimulus from the outside enters the brain through the sense organs, and is sent to the amygdaloid body and the hippocampus-lateral septum system, where it is judged if the stimulus is beneficial or harmful. (The judgment is referred to as “biological value evaluation”). The information that has been evaluated is stored in the amygdaloid body and the hippocampus. At the same time, biological response occurs, and biological response is visually recognized by an observer as emotional expression. A human and an animal learn (acquire) information on the biological value evaluation they gained through their experiences. When they receive the same stimulus, the stimulus is compared in the amygdaloid body and the hippocampus-lateral septum system. The response that occurs at the time is referred to as “conditioned emotional response”. Assume that a rat or mouse is put into a specified box and an electric stimulus it hates is applied to the rat or mouse. […] The akinesia is referred to as “condition-induced akinesia”. Currently, an animal model for evaluating anti-anxiety and anti-depression effects is widely used while using decrease of akinesia time as an index.
Whether the tranquilizer of the invention has a similar effect as a commercially-available anti-depressant was examined using said anxiety evaluation system. Specifically, fear-conditioned mice were fed through forced feeding a sample consisting of vitamin K and medium, or a control sample consisting of medium only, respectively, for 7 days. The effect of each sample was examined on the akinesia time of mice.
Menaquinone-4 and menaquinone-7 as vitamin K to be used as an active ingredient of an anti-anxiety agent of the invention were purchased from Wako Pure Chemical Industries, Ltd. After the given amounts of menaquinone-4 or menaquinone-7 were weighed, they were suspended in 0.5% MC so that a certain concentration is acquired. The control group was fed with only the medium (0.5% MC).
(§1) 10-week old male mice (C57BL/6NCrlCrlj, SPF grade) were purchased from Charles River Laboratories Japan. After 5-day quarantine period and subsequent 5-day acclimatization, weight measurement and observation of the general condition were conducted once a day.
A solid feed (ANG93G, Oriental Yeast Co., Ltd.) was placed in the feeder, and the mice were allowed to freely take the feed. The mice were allowed to freely drink water using a water bottle. The samples were orally administered through forced feeding in accordance specified method, using a disposable syringe made of polypropylene (manufactured by Terumo Corporation, Japan) attached with a disposable feeding needle for mouse (manufactured by Fuchigami kikai Ltd.). The sample was administered while it was stirred with a stirrer. The sample was administered so that the administration quantity of Vitamin K was 30 mg per kg in weight. The administration amount of liquid was calculated based on 10 ml/kg based using the weight on the date of administration.
(§2) The general conditions and death of a mouse were observed once a day before the administration. The weights were measured once a day before administration. A conditioned-fear measurement system (manufactured by ActiMetrics) was used for measuring electric stimulus and akinesia time. After the mice allocated to the individual groups were placed in the conditioned-fear measurement system, electric stimulus was applied for fear conditioning and the akinesia time was measured simultaneously. Electric stimulus of 0.3 mA for one second in every 15 seconds was applied for 240 seconds. Upon completion of the electric stimulus, the sample was administered to the mice. After 7-day administration, the mice in the control group (0.5% MC) and in the vitamin K-administered groups were placed again in the conditioned-fear measurement system at 2 hours or 2 hours and 1 minute after the final administration, and the akinesia time in 4 minutes was measured under the condition without electric stimulus being applied. […]

[3] = general conditions, death and weights during 7-day administration; assay type: in vivo, mouse; settings: mice, 30 mg/kg oral for 7 days, compared with control group (0.5% MC)
Protocol: as §1
A solid feed (ANG93G, Oriental Yeast Co., Ltd.) was placed in the feeder, and the mice were allowed to freely take the feed. The mice were allowed to freely drink water using a water bottle. […] The sample was administered so that the administration quantity of Vitamin K was 30 mg per kg in weight. The administration amount of liquid was calculated based on 10 ml/kg based using the weight on the date of administration.
as §2, with “A conditioned-fear measurement system (manufactured by ActiMetrics) was used for measuring electric stimulus and akinesia time.” left out, “Electric stimulus of 0.3 mA for one second in every 15 seconds was applied for 240 seconds. Upon completion of the electric stimulus, the sample was administered to the mice.” left out

[4] = MK-7 originating from fermented soybeans taken, compared with MK-4 taken directly (Ozaki et al. 2006); cited from earlier work

CCN(CC)C(=O)C1(c2ccccc2)CC1CN (stereo not shown) [milnacipran hydrochloride]
condition-induced akinesia (fear-conditioned mice [1]): akinesia is alleviated

CC(C)=CCC/C(C)=C/CC/C(C)=C/CC/C(C)=C/CC1=C(C)C(=O)c2ccccc2C1=O [menaquinone-4]
akinesia time (for every 60 seconds) compared to the control group, two-way analysis of variance (fear-conditioned mice [2]): significant decreases in the akinesia time were observed
akinesia time (% of freezing), period from 0 to 60 seconds (fear-conditioned mice [2]): 31.99%
akinesia time (% of freezing), period from 180 to 240 seconds (fear-conditioned mice [2]): 22.29%
weights through the administration period [3]: remained substantially constant

CC(C)=CCC/C(C)=C/CC/C(C)=C/CC/C(C)=C/CC/C(C)=C/CC/C(C)=C/CC/C(C)=C/CC1=C(C)C(=O)c2ccccc2C1=O [menaquinone-7]
MK-4 in the brain [4]: increases in the brain more remarkably
akinesia time (for every 60 seconds) compared to the control group, two-way analysis of variance (fear-conditioned mice [2]): significant decreases in the akinesia time were observed
akinesia time (% of freezing), period from 0 to 60 seconds (fear-conditioned mice [2]): 38.84%
akinesia time (% of freezing), period from 180 to 240 seconds (fear-conditioned mice [2]): 20.83%
weights through the administration period [3]: remained substantially constant
